In patent publication US5331089A, “Peptides useful as tachykinin agonists” (Merck Sharpe & Dohme, Ltd., priority 1988, dated 1994):
Where a SMILES comes first, the peptide text is derived from it.

Biological target: T1, NK-2 tachykinin receptor (Rattus norvegicus, UniProt P16610)
T1 construct: The vas deferens is dissected free from the surrounding connective tissue and suspended in a 3 ml organ bath; from tissue; host or cells: isolated rat vas deferens (male Wistar rat), longitudinal muscle
T1 sequence (P16610 1-390): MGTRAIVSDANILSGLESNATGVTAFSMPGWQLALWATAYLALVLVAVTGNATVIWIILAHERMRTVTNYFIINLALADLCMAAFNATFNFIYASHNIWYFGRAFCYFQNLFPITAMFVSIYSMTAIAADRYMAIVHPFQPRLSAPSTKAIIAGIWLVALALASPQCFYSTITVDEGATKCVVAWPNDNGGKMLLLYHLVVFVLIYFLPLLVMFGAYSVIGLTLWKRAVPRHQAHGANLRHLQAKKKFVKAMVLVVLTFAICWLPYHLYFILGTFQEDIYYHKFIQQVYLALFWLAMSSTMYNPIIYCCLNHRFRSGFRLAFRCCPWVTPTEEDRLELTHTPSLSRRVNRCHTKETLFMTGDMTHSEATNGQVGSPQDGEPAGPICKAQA
Test: Isolated rat vas deferens preparation: antagonism of eledoisin-induced increase in field-stimulated twitch
Assay type: cell-based
Conditions: isolated Wistar rat vas deferens, eledoisin as standard agonist, pA2 (-logKb) estimated from dose ratio; for Kb: read-out: pA2 (against eledoisin) (converted)
Protocol: The activity of the compounds of the accompanying Examples as tachykinin receptor antagonists was evaluated using the following method:
The tachykinin receptor present in the longitudinal muscle of the rat vas deferens has been characterised, using natural and synthetic tachykinins, as `NK-2`. This preparation is therefore used to determine the selectivity and potency of the peptides for this receptor sub-type.
Male Wistar rats weighing 200-300 g are killed by decapitation. The vas deferens is dissected free from the surrounding connective tissue and suspended in a 3 ml organ bath under an initial resting tension of 1 g. The tissue is maintained at 37° C. in modified KREBS HENSALEIT solution (NaCl 118.4, KCl 4.7, CaCl2 2.5, KH2 PO4 1.18, MgSO4.7H2 O 1.19, NaHCO3 25.0, D-glucose 11.1 mM), which is continuously gassed with a mixture of 95% O2 and 5% CO2. Field stimulated responses are elicited by trains of pulses delivered for 1 second every 20 seconds (7 Hz, 70-80 V, individual pulse duration 0.5 ms). […] Contractions remain reasonably constant for 3-4 hours with no spontaneous changes in resting tension. A dose-cycle of 10-15 minutes is used, drug contact time being about 3-5 minutes.
In all experiments eledoisin is used as a standard agonist. Eledoisin, in the dose range 10^-8 -3×10^-6 M, produces a dose-related increase in twitch height and, to a lesser extent, basal tension. A second dose-response curve is then constructed to the peptide under investigation.
To determine the potency of each peptide as an NK-2 antagonist, the test compound is added to the bathing medium, at an appropriate concentration, 20-30 minutes before the first dose of the second eledoisin dose-response curve. Thereafter addition of the test compound 5-10 minutes before the eledoisin dose is sufficient. The percentage increase in twitch produced by eledoisin in the presence and absence of the antagonist is expressed as a percentage of the maximum response of each individual dose-response curve. Thus all dose-response curves have the same maximum. From the dose ratio an estimate of the pA2 (-logKb) for each test compound can be determined:
pA2 =log[(DR-1)/(antagonist conc.)]

Molecule	Kb [nM]	pA2 (against eledoisin)
CSCC[C@@H]1NC(=O)[C@H](CC(C)C)NC(=O)CNC(=O)[C@H](Cc2ccccc2)NC(=O)[C@H](Cc2c[nH]c3ccccc23)NC(=O)[C@H](CCC(N)=O)NC1=O [Example 3, Cyclo (Gln-Trp-Phe-Gly-Leu-Met)] (cyclo(FGLMQW))	10	–
CSCC[C@@H]1NC(=O)[C@H](CC(C)C)N2CC[C@@H](NC(=O)[C@H](Cc3ccccc3)N(C)C(=O)[C@@H](Cc3c[nH]c4ccccc34)NC(=O)[C@H](CCC(N)=O)NC(=O)[C@H](CCSC)NC(=O)[C@H](CC(C)C)N3CC[C@@H](NC(=O)[C@H](Cc4ccccc4)N(C)C(=O)[C@@H](Cc4c[nH]c5ccccc45)NC(=O)[C@H](CCC(N)=O)NC1=O)C3=O)C2=O [Example 5b, cyclo (Gln-D-Trp-(N-Me)Phe-(R)Gly[ANC-2]Leu-Met2]	7940	–
Ac-LMQWFG-NH2 [Example 6, Acetyl-Leu-Met-Gln-Trp-Phe-Gly-NH2]	158	–
Cyclo(Gln-Npa-Phe-(R)Gly[ANC-2]Leu-Met) [Example 2]	–	5.6
